Laboratory results from ChEMBL document CHEMBL3885861, “Open TG-GATES”.

Species on record: Rattus norvegicus
Experiment: Open TG-GATES - Regimen: Daily Repeat
Type: toxicity, organism-based, Sprague-Dawley
Set-up: regimen Daily Repeat, gender Male, age 6 weeks
Details: in vivo, po, route gavage; for APTT / Bas / Eos / Fbg / Hb / Ht / Lym / MCH / MCHC / MCV / Mono / Neu / PT / Plat / RBC / Ret / WBC: tissue Blood; for KIDNEY_L / KIDNEY_R / KIDNEY_TOTAL: tissue Kidney; for LIVER: tissue Liver; for A/G / ALP / ALT / AST / BUN / CRE / Ca / Cl / DBIL / GLC / IP / K / LDH / Na / PL / RALB / TBIL / TC / TG / TP / gamma-GTP: tissue Plasma
[1] = 2 mg/kg, 72 h, dose level Middle, time 3 day
[2] = 2 mg/kg, […], dose level Middle, time 7 day
[3] = 2 mg/kg, […], dose level Middle, time 14 day
[4] = 2 mg/kg, […], dose level Middle, time 28 day
[5] = 6 mg/kg, 72 h, dose level High, time 3 day
[6] = 6 mg/kg, […], dose level High, time 7 day
[7] = 6 mg/kg, […], dose level High, time 14 day
[8] = 6 mg/kg, […], dose level High, time 28 day

## O=NN(CCCl)C(=O)NC1CCCCC1 [LOMUSTINE]
[1]
  TERMINAL_BW: 220 g
  APTT: 16.8 s
  Bas: 0%
  Eos: 0.8%
  Fbg: 231.8 mg/dL
  Hb: 13.3 g/dL
  Ht: 39.9%
  Lym: 82.4%
  MCH: 21.1 pg
  MCHC: 33.2%
  MCV: 63.7 fL
  Mono: 7.4%
  Neu: 9.6%
  PT: 11.7 s
  Plat: 108 x10_4/uL
  RBC: 628 x10_4/ul
  Ret: 6.9%
  WBC: 109.9 x10_2/uL
  KIDNEY_L: 1 g
  KIDNEY_R: 1 g
  KIDNEY_TOTAL: 2 g
  LIVER: 11.4 g
  A/G: 2
  ALP: 962.6 IU/L
  ALT: 29.8 IU/L
  AST: 59.4 IU/L
  BUN: 17 mg/dL
  CRE: 0.4 mg/dL
  Ca: 11 mg/dL
  Cl: 105.8 meq/L
  DBIL: 0.01 mg/dL
  GLC: 186.2 mg/dL
  IP: 7.9 mg/dL
  K: 4.7 meq/L
  LDH: 84 IU/L
  Na: 139.4 meq/L
  PL: 152.8 mg/dL
  RALB: 4 g/dL
  TBIL: 0.4 mg/dL
  TC: 83.2 mg/dL
  TG: 100.8 mg/dL
  TP: 5.9 g/dL
  gamma-GTP: 1.4 IU/L
[2]
  TERMINAL_BW: 246.4 g
  APTT: 15.6 s
  Bas: 0%
  Eos: 1%
  Fbg: 246.8 mg/dL
  Hb: 13.9 g/dL
  Ht: 42%
  Lym: 80%
  MCH: 21 pg
  MCHC: 33.3%
  MCV: 63.2 fL
  Mono: 7.4%
  Neu: 11.6%
  PT: 11.4 s
  Plat: 98.8 x10_4/uL
  RBC: 664.2 x10_4/ul
  Ret: 5.1%
  WBC: 103.8 x10_2/uL
  KIDNEY_L: 1 g
  KIDNEY_R: 1 g
  KIDNEY_TOTAL: 2 g
  LIVER: 13 g
  A/G: 1.7
  ALP: 976.4 IU/L
  ALT: 47.2 IU/L
  AST: 85.8 IU/L
  BUN: 19.6 mg/dL
  CRE: 0.4 mg/dL
  Ca: 11.2 mg/dL
  Cl: 105.8 meq/L
  DBIL: 0.016 mg/dL
  GLC: 181.8 mg/dL
  IP: 7.7 mg/dL
  K: 4.6 meq/L
  LDH: 87 IU/L
  Na: 139.8 meq/L
  PL: 169.6 mg/dL
  RALB: 3.8 g/dL
  TBIL: 0.3 mg/dL
  TC: 98.8 mg/dL
  TG: 95.6 mg/dL
  TP: 6.1 g/dL
  gamma-GTP: 2.2 IU/L
[3]
  TERMINAL_BW: 298.5 g
  APTT: 16.4 s
  Bas: 0%
  Eos: 0.6%
  Fbg: 228.4 mg/dL
  Hb: 14.3 g/dL
  Ht: 42.9%
  Lym: 81.8%
  MCH: 20.3 pg
  MCHC: 33.2%
  MCV: 61.2 fL
  Mono: 5.8%
  Neu: 11.8%
  PT: 11.4 s
  Plat: 129.2 x10_4/uL
  RBC: 701.8 x10_4/ul
  Ret: 4.3%
  WBC: 127.6 x10_2/uL
  KIDNEY_L: 1.2 g
  KIDNEY_R: 1.2 g
  KIDNEY_TOTAL: 2.5 g
  LIVER: 14.1 g
  A/G: 2.1
  ALP: 822.6 IU/L
  ALT: 36.2 IU/L
  AST: 66.8 IU/L
  BUN: 17.4 mg/dL
  CRE: 0.5 mg/dL
  Ca: 11.4 mg/dL
  Cl: 106.4 meq/L
  DBIL: 0.032 mg/dL
  GLC: 183.8 mg/dL
  IP: 7.3 mg/dL
  K: 4.6 meq/L
  LDH: 94.8 IU/L
  Na: 140.2 meq/L
  PL: 166 mg/dL
  RALB: 4.1 g/dL
  TBIL: 0.3 mg/dL
  TC: 77.2 mg/dL
  TG: 136 mg/dL
  TP: 6.1 g/dL
  gamma-GTP: 2.4 IU/L
[4]
  TERMINAL_BW: 364.6 g
  APTT: 16 s
  Bas: 0%
  Eos: 1%
  Fbg: 230.4 mg/dL
  Hb: 14.9 g/dL
  Ht: 44.4%
  Lym: 80%
  MCH: 19 pg
  MCHC: 33.5%
  MCV: 56.9 fL
  Mono: 7.6%
  Neu: 11.6%
  PT: 11.3 s
  Plat: 113.9 x10_4/uL
  RBC: 780.6 x10_4/ul
  Ret: 2.5%
  WBC: 145.6 x10_2/uL
  KIDNEY_L: 1.4 g
  KIDNEY_R: 1.4 g
  KIDNEY_TOTAL: 2.7 g
  LIVER: 16.6 g
  A/G: 1.7
  ALP: 637.8 IU/L
  ALT: 61.4 IU/L
  AST: 115.8 IU/L
  BUN: 19.6 mg/dL
  CRE: 0.4 mg/dL
  Ca: 11.1 mg/dL
  Cl: 106.8 meq/L
  DBIL: 0.054 mg/dL
  GLC: 186.6 mg/dL
  IP: 6.3 mg/dL
  K: 4.5 meq/L
  LDH: 163 IU/L
  Na: 139.8 meq/L
  PL: 192.4 mg/dL
  RALB: 4.1 g/dL
  TBIL: 0.3 mg/dL
  TC: 106.6 mg/dL
  TG: 85.4 mg/dL
  TP: 6.5 g/dL
  gamma-GTP: 3.6 IU/L
[5]
  TERMINAL_BW: 213.1 g
  APTT: 16.1 s
  Bas: 0%
  Eos: 0.6%
  Fbg: 212.8 mg/dL
  Hb: 13 g/dL
  Ht: 38.9%
  Lym: 86%
  MCH: 21.3 pg
  MCHC: 33.3%
  MCV: 64.1 fL
  Mono: 5.6%
  Neu: 8%
  PT: 11.9 s
  Plat: 114.8 x10_4/uL
  RBC: 607.2 x10_4/ul
  Ret: 6.1%
  WBC: 100.8 x10_2/uL
  KIDNEY_L: 1 g
  KIDNEY_R: 1 g
  KIDNEY_TOTAL: 2 g
  LIVER: 10.2 g
  A/G: 2.2
  ALP: 1003.2 IU/L
  ALT: 30.4 IU/L
  AST: 65 IU/L
  BUN: 15.6 mg/dL
  CRE: 0.5 mg/dL
  Ca: 10.8 mg/dL
  Cl: 104.8 meq/L
  DBIL: 0.028 mg/dL
  GLC: 179 mg/dL
  IP: 9 mg/dL
  K: 4.7 meq/L
  LDH: 105.4 IU/L
  Na: 139 meq/L
  PL: 136.6 mg/dL
  RALB: 3.9 g/dL
  TBIL: 0.3 mg/dL
  TC: 75.6 mg/dL
  TG: 56.4 mg/dL
  TP: 5.8 g/dL
  gamma-GTP: 1.8 IU/L
[6]
  TERMINAL_BW: 225.8 g
  APTT: 15.7 s
  Bas: 0%
  Eos: 0.4%
  Fbg: 237.4 mg/dL
  Hb: 14.3 g/dL
  Ht: 43.1%
  Lym: 80.6%
  MCH: 20.9 pg
  MCHC: 33.3%
  MCV: 62.9 fL
  Mono: 8.8%
  Neu: 10.2%
  PT: 11.7 s
  Plat: 124 x10_4/uL
  RBC: 686.4 x10_4/ul
  Ret: 3.4%
  WBC: 73.5 x10_2/uL
  KIDNEY_L: 1 g
  KIDNEY_R: 1 g
  KIDNEY_TOTAL: 2.1 g
  LIVER: 10.6 g
  A/G: 1.7
  ALP: 656.6 IU/L
  ALT: 48.4 IU/L
  AST: 97 IU/L
  BUN: 16.6 mg/dL
  CRE: 0.5 mg/dL
  Ca: 11.2 mg/dL
  Cl: 105.6 meq/L
  DBIL: 0.03 mg/dL
  GLC: 170.4 mg/dL
  IP: 7.3 mg/dL
  K: 4.7 meq/L
  LDH: 139.6 IU/L
  Na: 139.2 meq/L
  PL: 156 mg/dL
  RALB: 3.8 g/dL
  TBIL: 0.3 mg/dL
  TC: 98.4 mg/dL
  TG: 55.8 mg/dL
  TP: 6.1 g/dL
  gamma-GTP: 2.6 IU/L
[7]
  TERMINAL_BW: 229.7 g
  APTT: 15.8 s
  Bas: 0%
  Eos: 0.6%
  Fbg: 237.4 mg/dL
  Hb: 15.1 g/dL
  Ht: 44.8%
  Lym: 75.4%
  MCH: 20.1 pg
  MCHC: 33.7%
  MCV: 59.8 fL
  Mono: 14.4%
  Neu: 9.6%
  PT: 11.2 s
  Plat: 133.2 x10_4/uL
  RBC: 750 x10_4/ul
  Ret: 1.2%
  WBC: 75.3 x10_2/uL
  KIDNEY_L: 1.1 g
  KIDNEY_R: 1.1 g
  KIDNEY_TOTAL: 2.1 g
  LIVER: 10.5 g
  A/G: 1.6
  ALP: 694.4 IU/L
  ALT: 101.6 IU/L
  AST: 223.6 IU/L
  BUN: 23.4 mg/dL
  CRE: 0.6 mg/dL
  Ca: 11.3 mg/dL
  Cl: 105.8 meq/L
  DBIL: 0.3 mg/dL
  GLC: 159.8 mg/dL
  IP: 6.4 mg/dL
  K: 4.7 meq/L
  LDH: 210.6 IU/L
  Na: 139.6 meq/L
  PL: 236.8 mg/dL
  RALB: 3.8 g/dL
  TBIL: 0.4 mg/dL
  TC: 159.8 mg/dL
  TG: 48.2 mg/dL
  TP: 6.2 g/dL
  gamma-GTP: 4.6 IU/L
[8]
  TERMINAL_BW: 202.6 g
  APTT: 15.2 s
  Bas: 0%
  Eos: 0.8%
  Fbg: 255.7 mg/dL
  Hb: 15.6 g/dL
  Ht: 45.3%
  Lym: 58.5%
  MCH: 18.9 pg
  MCHC: 34.5%
  MCV: 54.6 fL
  Mono: 22.5%
  Neu: 18.8%
  PT: 11.6 s
  Plat: 121.1 x10_4/uL
  RBC: 832.2 x10_4/ul
  Ret: 2.5%
  WBC: 114.2 x10_2/uL
  KIDNEY_L: 1.4 g
  KIDNEY_R: 1.3 g
  KIDNEY_TOTAL: 2.7 g
  LIVER: 9.5 g
  A/G: 1.3
  ALP: 520.8 IU/L
  ALT: 153.2 IU/L
  AST: 484.2 IU/L
  BUN: 31.2 mg/dL
  CRE: 0.2 mg/dL
  Ca: 11.3 mg/dL
  Cl: 106.2 meq/L
  DBIL: 3.9 mg/dL
  GLC: 137 mg/dL
  IP: 5.9 mg/dL
  K: 4.8 meq/L
  LDH: 298.8 IU/L
  Na: 142.2 meq/L
  PL: 301 mg/dL
  RALB: 3.5 g/dL
  TBIL: 3.3 mg/dL
  TC: 207.2 mg/dL
  TG: 118 mg/dL
  TP: 6.1 g/dL
  gamma-GTP: 11.8 IU/L
